According to publication PMC9613624 (Journal of medicinal chemistry, 2022):

Assays:
SW620 cells = assay: Cell proliferation assay; type: cell-based; conditions: 5 days, IncuCyte
AKT = assay: Western blotting of T-AKT in SW620 cells; type: cell-based; conditions: SW620 cells, concentrations up to 10 μM, 24 h
AKT1 = AKT1 (Homo sapiens, UniProt P31749); assay: AKT activity inhibition assay; type: biochemical; conditions: 10 μM ATP
AKT2 = AKT2 (Homo sapiens, UniProt P31751); assay: AKT activity inhibition assay; type: biochemical; conditions: 10 μM ATP
Sequence of AKT2 (P31751 whole entry): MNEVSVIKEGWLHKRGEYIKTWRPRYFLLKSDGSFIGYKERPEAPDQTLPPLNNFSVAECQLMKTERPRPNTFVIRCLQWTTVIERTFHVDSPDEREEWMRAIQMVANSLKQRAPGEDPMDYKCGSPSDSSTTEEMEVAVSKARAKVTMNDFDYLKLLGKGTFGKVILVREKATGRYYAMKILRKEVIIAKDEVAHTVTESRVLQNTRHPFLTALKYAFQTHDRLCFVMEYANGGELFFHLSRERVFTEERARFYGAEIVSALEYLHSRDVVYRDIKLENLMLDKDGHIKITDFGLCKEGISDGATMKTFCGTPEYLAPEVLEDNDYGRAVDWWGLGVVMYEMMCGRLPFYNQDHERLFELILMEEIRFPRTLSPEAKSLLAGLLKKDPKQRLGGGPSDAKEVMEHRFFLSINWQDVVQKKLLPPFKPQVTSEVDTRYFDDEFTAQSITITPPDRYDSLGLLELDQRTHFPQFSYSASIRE

AKT3 = AKT3 (Homo sapiens, UniProt Q9Y243); assay: AKT activity inhibition assay; type: biochemical; conditions: 10 μM ATP
Sequence of AKT3 (Q9Y243 whole entry): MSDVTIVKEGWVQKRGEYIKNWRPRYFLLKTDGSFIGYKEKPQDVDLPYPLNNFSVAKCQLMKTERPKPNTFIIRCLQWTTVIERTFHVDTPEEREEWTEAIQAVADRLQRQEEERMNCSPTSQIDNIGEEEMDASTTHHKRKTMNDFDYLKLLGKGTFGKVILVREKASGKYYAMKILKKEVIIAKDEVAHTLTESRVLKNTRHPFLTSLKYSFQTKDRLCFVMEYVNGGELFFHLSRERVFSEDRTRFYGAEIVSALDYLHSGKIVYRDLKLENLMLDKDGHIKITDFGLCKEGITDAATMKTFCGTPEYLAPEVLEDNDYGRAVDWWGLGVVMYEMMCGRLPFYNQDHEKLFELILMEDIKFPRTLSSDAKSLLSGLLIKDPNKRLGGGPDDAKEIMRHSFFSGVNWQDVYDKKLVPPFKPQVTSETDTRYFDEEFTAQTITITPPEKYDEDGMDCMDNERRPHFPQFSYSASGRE

Sequence of AKT1 (P31749 whole entry): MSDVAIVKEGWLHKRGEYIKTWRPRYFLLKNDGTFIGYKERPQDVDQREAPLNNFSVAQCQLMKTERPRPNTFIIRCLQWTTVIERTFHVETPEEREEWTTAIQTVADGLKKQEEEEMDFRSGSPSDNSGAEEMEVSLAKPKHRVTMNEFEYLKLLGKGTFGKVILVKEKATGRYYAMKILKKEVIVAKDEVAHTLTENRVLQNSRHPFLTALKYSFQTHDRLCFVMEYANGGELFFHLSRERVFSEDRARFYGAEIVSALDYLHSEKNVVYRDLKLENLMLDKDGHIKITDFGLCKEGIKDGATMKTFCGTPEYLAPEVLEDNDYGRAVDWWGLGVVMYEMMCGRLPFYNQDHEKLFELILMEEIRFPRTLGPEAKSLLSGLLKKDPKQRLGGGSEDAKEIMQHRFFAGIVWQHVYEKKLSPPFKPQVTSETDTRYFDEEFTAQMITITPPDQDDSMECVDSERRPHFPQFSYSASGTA

**Q.** For `Cc1ncsc1-c1ccc([C@H](C)NC(=O)[C@H]2C[C@H](OCc3ccccc3)CN2C(=O)[C@@H](NC(=O)CCCCCCCCCCNC(=O)CCc2cccc(-c3ccc4nc(-c5cccnc5N)n(-c5ccc(C6(N)CCC6)cc5)c4n3)c2)C(C)(C)C)cc1` [Compound 64, (2R,4S)-1-((S)-2-(11-(3-(3-(3-(4-(1-Aminocyclobutyl)phenyl)-2-(2-aminopyridin-3-yl)-3H-imidazo[4,5-b]pyridin-5-yl)phenyl)propanamido)undecanamido)-3,3-dimethylbutanoyl)-4-(benzyloxy)-N-((S)-1-(4-(4-methylthiazol-5-yl)phenyl)ethyl)pyrrolidine-2-carboxamide], which “cell growth inhibition (in words)” value (SW620 cells) is on record?
**A.** inactive

**Q.** And the “effect on AKT protein levels at high concentrations (in words)” value (AKT)?
**A.** no effect

**Q.** And the “decrease of AKT1 inhibition potency compared to 62” value (AKT1)?
**A.** 1.5 fold

**Q.** What about the “decrease of AKT2 inhibition potency compared to 62” value (AKT2) of the same molecule?
**A.** 6 fold

**Q.** And the “decrease of AKT3 inhibition potency compared to 62” value (AKT3)?
**A.** 3.6 fold
